Source: patent US6476203B1, “Safe pharmaceutical composition for treating and preventing infertility and increasing immune function” (priority 2002, dated 2002)
Marks after values point to notes of the source that are not given here.

Tests used:
testosterone = assay: Effect of ICN on testosterone (radioimmune method); type: in vivo, Wistar male rats
Method: Thirty normal Wistar male rats weighing 280+20 g were selected.
The rats were killed 30th days after the administration. The testosterone level of the rats in various groups was determined by using radioimmune method. The index of testis was determined. Control group was pathological model group. In control group, rats treated by cyclophosphamide (CYE). Rats treated by ICN+CYE in treatment group.

male mice = assay: Effect of ICN on sexual behavior (ejaculation experiments); type: in vivo
Excerpt: Selected 50 mice including male: 28-32g and female: 24-26g. The age of mice is over 8 weeks. The mice were divided normal group, suspend-loaded group, large dosage of ICN group, small dosage of ICN group and positive control group. The index of major sexual behaviors of male mice is ejaculation experiments operated on 15th day.

[1] = test system: bone marrow stem cells (CFU-S); assay: Effects of ICN on hemopoietic system (spleen colony assay); type: in vivo, mice
Excerpt: With increased cells in bone-marrow (BMC), endogenous colonies in spleen and higher ^3H-TdR uptake in marrow and spleen. The level of serum colony stimulating factor (CSF) increased after injection.

peritoneal macrophage = assay: Effect of ICN on phagocytosis of peritoneal macrophage; type: in vivo; conditions: mice, ICN 5.5 mg/kg i.p. daily for 5 days, cyclophosphamide 4.5 mg/kg; macrophages with phagocytized chick red blood cells per 100 macrophages
Method: The control mice were injected with same volume of normal saline. These injections were repeated daily for 5 days, both treated and control group were injected intraperitoneally with cyclosphosphamide. The dosage of cyclophosphamide is 4.5 mg/kg. The same experimental procedure for example 3, 4 and 5 in testing mice were used. Added 0.02 ml of 5% washed chick red blood cell suspension to 0.5 ml of the peritoneal exudates. Shook gently to mix and incubate at 37° C. for 5 minutes. Dipped two cover slips, closed to each other, in the above mixture and incubated for 30 minutes for the migration of the macrophages along the cover slips, fixed and stained with Sharma stain. Examined microscopically for: Phagocytic rate—number of macrophages with phagocytized chick red blood cells per 100 macrophages counted. Method of animal model is regular.

white blood cells = assay: Effect of ICN on white blood cells in rats treated by cyclophosphamide; type: in vivo
Excerpt: Action of ICN and cyclophosphamide on white blood cells was investigated by means of white blood cells assay. […] Method of testing in animal is standard. The dosage of ICN and cyclophosphamide is the same as in above examples. Time of treatment is 10 days.

lymphocytes = assay: Effect of ICN on lymphoblastoid transformation (3H-TdR liquid scintillation); type: in vivo, mice; conditions: 3H-TdR uptake, PHA-stimulated lymphocytes
Method: (1) Experimental procedure of animal is the same as in Example 2.
(2) Lemphoblastoid transformation test:
I. Reagents and conditions for cell culture
a. Culture media—RPMI 1640, medium 199 minimal essential medium (Eagle).
b. Buffer—Hepes buffer, the final concentration at 37° C. was 25 mM, to maintain the pH of the medium at 7.31.
c. Serum—generally 15-205 fetal bovine serum was incorporated, for lymphocytes from mice, 5% was used.
d. Gaseous phase—5% CO2 in air.
e. Cell concentration—generally 1-2 c 10^6/ml.
f. Stimulants—20μl/ml for phytohemagglutinin containing polysaccharide (PHA-M) or 10 μl/ml for polysaccharide-free purified phytohemagglutinin (PHA-P).
II. Measured by liquid scintillation
a. The conditions of cell culture are same as above. ^3H-TdR was added after 48 hours of incubation at a final concentration of 1 μCi/ml and continued the incubation for 24 hours.
b. Washed the cells twice with cold normal saline and the erythrocytes were lysed. The intact lymphocytes were again washed once with cold saline. Spun down the lymphocytes and added 2 ml of 10% trichloroacetic acid to precipitate the protein. Washed twice with normal saline. Added 2 ml of ethanol:ether (1:1) to wash once. 0.2 ml of formic acid was then added for digestion till the precipitate was dissolved.
c. Added 4 ml of scintillation fluid to 0.1 ml of the final sample and counted in a liquid scintillation counter.

interleukin-2 (rIL-2) = assay: Effect of ICN on interleukin-2 (rIL-2); type: in vivo; conditions: treatment group
Excerpt: The methods of determination rIL-2 were regular.

human blood lymphocytes = assay: Effects of ICN on immune function of human blood lymphocytes (3H-TdR incorporation); type: cell-based; conditions: for CPM (3H-TdR incorporation into lymphocytes): ICN added to culture medium
Method: 2 ml of venous blood, heparinized was obtained from each of the participants. […] MEM was supplemented with 0.125 ml of heat-inactivated fetal calf serum, 100 units of Penicillin and 0.1 mg of streptomycin per ml of medium. Culture medium was divided into treated (ICN) and control group. ICN was added to the culture medium of treatment group. […] The ^3H-thymidine (^3H-TdR) was added into all the cultures (2 μci/ml) for last 12 hours of culture. The cells were harvested on 0.45 μm filters, washed with phosphate buffer (ph 7.4) and bleached with H2O2. The filters were then dried and the incorporation of ^3H-TdR into lymphocytes cell was measured by scintillation counter.

Lipoperoxides = assay: Effect on peroxidation (hepatic lipoperoxide content); type: in vivo
Method: The animal experiments were performed as previously described. Hepatic lipoperoxide content was determined. In the present study, the effect of SCS on lipoperoxides was examined. It is known that the pathogenesis of CCl4—induced hepatic damage involved reactive oxidant species increasing from the metabolism. The liver injure caused by CCl4 is due to the formation of a reactive toxic metabolite by the hepatic cytochrome P-450 system.

[2] = mice treated by cyclophosphamide

Substance: Icariin [ICN]
- Testosterone level (testosterone; rats treated by ICN+CYE (cyclophosphamide), killed 30th day after administration, X ± SD): 154.6 ± 19.8 ng/dL
- level of testosterone (in words) (testosterone; summary of Table 1): increase the level of testosterone significantly
- Ejaculation proportion (male mice; male mice, 15th day): 93%
- treatment of infertility (in words) (male mice; summary of Table 4): marked efficiency
- protection of stem cells of bone marrow from killing effect of cyclophosphamide ([1]; mice): protected
- 3H-TdR uptake in marrow and spleen [1, 2]: higher
- cells in bone-marrow (BMC) [1, 2]: increased
- endogenous colonies in spleen [1, 2]: increased
- recovery rate of hemopoieses [1, 2]: markedly improve
- Mean (CFU-S ± SD) ([1]; mice treated by cyclophosphamide, spleen colony assay): 27.2 ± 3.0
- Phagocytic (rate ± SD) (peritoneal macrophage): 28.5 ± 3.0
- protection of white blood cells from killing effect of cyclophosphamide (white blood cells; rats): protected
- White blood cells × 10^3/cm^3 ± SD (white blood cells; rats treated by cyclophosphamide, 10 days treatment): 12.8 ± 2.0* 10^3/cm^3
- CPM ± SD (lymphoblastoid transformation) (lymphocytes): 1150 ± 120 CPM
- IL-2 (U/ml) ± SD (interleukin-2 (rIL-2)): 79.0 ± 8.5 U/ml
- CPM (3H-TdR incorporation into lymphocytes) (human blood lymphocytes; Old (n = 20)): 2500 ± 350 CPM
- CPM (3H-TdR incorporation into lymphocytes) (human blood lymphocytes; Young (n = 20)): 8155 ± 986 CPM
- human immune function (in words) (human blood lymphocytes; summary of Table 5-10): increase human immune function significantly
- Lipoperoxides (Lipoperoxides; 1 h): 0.75 ± 0.08 mmol MDA/g liver protein
- Lipoperoxides (Lipoperoxides; 3 h): 0.70 ± 0.07 mmol MDA/g liver protein
- Lipoperoxides (Lipoperoxides; 6 h): 0.80 ± 0.9 mmol MDA/g liver protein
- Lipoperoxides (Lipoperoxides; 12 h): 0.70 ± 0.9 mmol MDA/g liver protein
- Lipoperoxides (Lipoperoxides; 24 h): 1.0 ± 0.12 mmol MDA/g liver protein
